Tested on: Escherichia coli ATCC 25922
Experiment: 50% growth inhibitory concentration (IC50) determination, Iso-Sensitest broth dilution
Format: cell-based
Conditions: Escherichia coli, ATCC25922, 16 h, strain Escherichia coli ATCC 25922; 10-point broth dilution, optical density at 600 nm over 16 h; read-out: Escherichia coli growth inhibition IC50
How it was run: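 Growth was tracked as optical density at 600 nm every 20 minutes for 16 h at 35±2° C. Compounds from DMSO stocks were serially diluted twofold over 10 points (e.g. 50–0.097 μM final) in Iso-Sensitest broth. Inhibition computed in log-phase growth to give IC50.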

Structure (SMILES) | IC50 [nM]
CN1CCCC1COc1ccc2c(c1C#N)CC(CNCCC1CN(c3ccc4c(n3)NC(=O)CO4)C(=O)O1)C2 (centres unmarked) [Example 52, 5-[(1-methylpyrrolidin-2-yl)methoxy]-2-[[2-[2-oxo-3-(3-oxo-4H-pyrido[3,2-b][1,4]oxazin-6-yl)-1,3-oxazolidin-5-yl]ethylamino]methyl]-2,3-dihydro-1H-indene-4-carbonitrile; formic acid] | < 97.7
N#Cc1c(OCCN2CCOCC2)ccc2c1CC(CNCCC1CN(c3ccc4c(n3)NC(=O)CO4)C(=O)O1)C2 (centres unmarked) [Example 54, 5-(2-morpholin-4-ylethoxy)-2-[[2-[2-oxo-3-(3-oxo-4H-pyrido[3,2-b][1,4]oxazin-6-yl)-1,3-oxazolidin-5-yl]ethylamino]methyl]-2,3-dihydro-1H-indene-4-carbonitrile; formic acid] | 357
COc1cnc(Cl)c2c1CC(CNCCC1CN(c3cnc4c(n3)NC(=O)CO4)C(=O)O1)C2 (centres unmarked) [Example 58, 6-[5-[2-[(1-chloro-4-methoxy-6,7-dihydro-5H-cyclopenta[c]pyridin-6-yl)methylamino]ethyl]-2-oxo-1,3-oxazolidin-3-yl]-4H-pyrazino[2,3-b][1,4]oxazin-3-one; formic acid] | 190
CS(=O)(=O)NCCOc1ccc2c(c1C#N)CC(CNCCC1CN(c3ccc4c(n3)NC(=O)CO4)C(=O)O1)C2 (centres unmarked) [Example 59, N-[2-[[4-cyano-2-[[2-[2-oxo-3-(3-oxo-4H-pyrido[3,2-b][1,4]oxazin-6-yl)-1,3-oxazolidin-5-yl]ethylamino]methyl]-2,3-dihydro-1H-inden-5-yl]oxy]ethyl]methanesulfonamide] | 253
Cc1ncc(Cl)c2c1CC(CNCCC1CN(c3cnc4c(n3)NC(=O)CO4)C(=O)O1)C2 (centres unmarked) [Example 60, 6-[5-[2-[(4-chloro-1-methyl-6,7-dihydro-5H-cyclopenta[c]pyridin-6-yl)methylamino]ethyl]-2-oxo-1,3-oxazolidin-3-yl]-4H-pyrazino[2,3-b][1,4]oxazin-3-one; formic acid] | < 97.7
N#Cc1cccc2c1CC(CNC[C@@H](O)[C@H]1CN(c3ccc4c(c3)NC(=O)CO4)C(=O)O1)C2 (stereo partly drawn) [Example 61, 2-[[[(2R)-2-hydroxy-2-[(5R)-2-oxo-3-(3-oxo-4H-1,4-benzoxazin-6-yl)-1,3-oxazolidin-5-yl]ethyl]amino]methyl]-2,3-dihydro-1H-indene-4-carbonitrile; formic acid] | 164
N#Cc1cccc2c1CC(CNC[C@H](O)[C@@H]1CN(c3ccc4c(c3)NC(=O)CO4)C(=O)O1)C2 (stereo partly drawn) [Example 62, 2-[[[(2S)-2-hydroxy-2-[(5S)-2-oxo-3-(3-oxo-4H-1,4-benzoxazin-6-yl)-1,3-oxazolidin-5-yl]ethyl]amino]methyl]-2,3-dihydro-1H-indene-4-carbonitrile; formic acid] | 208
N#Cc1c(OC2COC2)ccc2c1CC(CNCCC1CN(c3ccc4c(n3)NC(=O)CO4)C(=O)O1)C2 (centres unmarked) [Example 63, 5-(oxetan-3-yloxy)-2-[[2-[2-oxo-3-(3-oxo-4H-pyrido[3,2-b][1,4]oxazin-6-yl)-1,3-oxazolidin-5-yl]ethylamino]methyl]-2,3-dihydro-1H-indene-4-carbonitrile] | < 97.7
N#Cc1cccc2c1CC(CNCCC1CN(c3ccc4c(n3)NC(=O)CS4)C(=O)O1)C2 (centres unmarked) [Example 64, 2-[[2-[2-oxo-3-(3-oxo-4H-pyrido[3,2-b][1,4]thiazin-6-yl)-1,3-oxazolidin-5-yl]ethylamino]methyl]-2,3-dihydro-1H-indene-4-carbonitrile] | < 97.7
COc1cc2c(c(C#N)n1)CC(CNCCC1CN(c3cnc4c(n3)NC(=O)CO4)C(=O)O1)C2 (centres unmarked) [Example 65, 3-methoxy-6-[[2-[2-oxo-3-(3-oxo-4H-pyrazino[2,3-b][1,4]oxazin-6-yl)oxazolidin-5-yl]ethylamino]methyl]-6,7-dihydro-5H-cyclopenta[c]pyridine-1-carbonitrile; formic acid] | < 97.7
Cc1ncc(F)c2c1CC(CNCCc1nn(-c3ccc4c(c3)NC(=O)CO4)c(=O)o1)C2 (centres unmarked) [Example 67, 6-[5-[2-[(4-fluoro-1-methyl-6,7-dihydro-5H-cyclopenta[c]pyridin-6-yl)methylamino]ethyl]-2-oxo-1,3,4-oxadiazol-3-yl]-4H-1,4-benzoxazin-3-one] | 249
Cc1ncc(F)c2c1CC(CNCCc1nn(-c3ccc4c(n3)NC(=O)CO4)c(=O)o1)C2 (centres unmarked) [Example 68, 6-[5-[2-[(4-fluoro-1-methyl-6,7-dihydro-5H-cyclopenta[c]pyridin-6-yl)methylamino]ethyl]-2-oxo-1,3,4-oxadiazol-3-yl]-4H-pyrido[3,2-b][1,4]oxazin-3-one] | 175
COc1ncc(F)c2c1CC(CNCCC1CN(c3cnc4c(n3)NC(=O)CO4)C(=O)O1)C2 (centres unmarked) [Example 71, 6-[5-[2-[(4-fluoro-1-methoxy-6,7-dihydro-5H-cyclopenta[c]pyridin-6-yl)methylamino]ethyl]-2-oxo-oxazolidin-3-yl]-4H-pyrazino[2,3-b][1,4]oxazin-3-one] | < 97.7
Cc1ncc(F)c2c1CC(CN1CCC3(CC1)CN(c1ccc4c(n1)NC(=O)CO4)C(=O)O3)C2 (centres unmarked) [Example 72, 6-[8-[(4-fluoro-1-methyl-6,7-dihydro-5H-cyclopenta[c]pyridin-6-yl)methyl]-2-oxo-1-oxa-3,8-diazaspiro[4.5]decan-3-yl]-4H-pyrido[3,2-b][1,4]oxazin-3-one] | 69.7
Cc1ncc(F)c2c1CC(CN1CC(C3CN(c4cnc5c(n4)NC(=O)CO5)C(=O)O3)C1)C2 (centres unmarked) [Example 75, 6-[5-[1-[(4-fluoro-1-methyl-6,7-dihydro-5H-cyclopenta[c]pyridin-6-yl)methyl]azetidin-3-yl]-2-oxo-oxazolidin-3-yl]-4H-pyrazino[2,3-b][1,4]oxazin-3-one; formic acid] | 230
N#Cc1cccc2c1CC(CN1CC(C3CN(c4cnc5c(n4)NC(=O)CO5)C(=O)O3)C1)C2 (centres unmarked) [Example 76, 2-[[3-[2-oxo-3-(3-oxo-4H-pyrazino[2,3-b][1,4]oxazin-6-yl)-1,3-oxazolidin-5-yl]azetidin-1-yl]methyl]-2,3-dihydro-1H-indene-4-carbonitrile; formic acid] | < 97.7

Next, values leading:

IC50 [nM] | Structure (SMILES)
< 97.7 | COc1cc2c(c(C#N)n1)CC(CNCCC1CN(c3ccc4c(n3)NC(=O)CO4)C(=O)O1)C2 (centres unmarked) [Example 53, 3-methoxy-6-[[2-[2-oxo-3-(3-oxo-4H-pyrido[3,2-b][1,4]oxazin-6-yl)-1,3-oxazolidin-5-yl]ethylamino]methyl]-6,7-dihydro-5H-cyclopenta[c]pyridine-1-carbonitrile]
< 97.7 | Cc1ncc(Cl)c2c1CC(CNCCC1CN(c3ccc4c(n3)NC(=O)CO4)C(=O)O1)C2 (centres unmarked) [Example 55, 6-[5-[2-[(4-chloro-1-methyl-6,7-dihydro-5H-cyclopenta[c]pyridin-6-yl)methylamino]ethyl]-2-oxo-1,3-oxazolidin-3-yl]-4H-pyrido[3,2-b][1,4]oxazin-3-one; formic acid]
941 | CC(=O)NCCOc1ccc2c(c1C#N)CC(CNCCC1CN(c3ccc4c(n3)NC(=O)CO4)C(=O)O1)C2 (centres unmarked) [Example 56, N-[2-[[4-cyano-2-[[2-[2-oxo-3-(3-oxo-4H-pyrido[3,2-b][1,4]oxazin-6-yl)-1,3-oxazolidin-5-yl]ethylamino]methyl]-2,3-dihydro-1H-inden-5-yl]oxy]ethyl]acetamide]
328 | COc1cnc(Cl)c2c1CC(CNCCC1CN(c3ccc4c(n3)NC(=O)CO4)C(=O)O1)C2 (centres unmarked) [Example 57, 6-[5-[2-[(1-chloro-4-methoxy-6,7-dihydro-5H-cyclopenta[c]pyridin-6-yl)methylamino]ethyl]-2-oxo-1,3-oxazolidin-3-yl]-4H-pyrido[3,2-b][1,4]oxazin-3-one]
234 | CNC(=O)COc1cc2c(c(Cl)n1)CC(CNCCC1CN(c3ccc4c(n3)NC(=O)CO4)C(=O)O1)C2 (centres unmarked) [Example 66, 2-[[1-chloro-6-[[2-[2-oxo-3-(3-oxo-4H-pyrido[3,2-b][1,4]oxazin-6-yl)oxazolidin-5-yl]ethylamino]methyl]-6,7-dihydro-5H-cyclopenta[c]pyridin-3-yl]oxy]-N-methyl-acetamide]
123 | CNC(=O)COc1cc(F)c2c(c1)CC(CNCCC1CN(c3ccc4c(n3)NC(=O)CO4)C(=O)O1)C2 (centres unmarked) [Example 69, 2-[[7-fluoro-2-[[2-[2-oxo-3-(3-oxo-4H-pyrido[3,2-b][1,4]oxazin-6-yl)-1,3-oxazolidin-5-yl]ethylamino]methyl]-2,3-dihydro-1H-inden-5-yl]oxy]-N-methylacetamide; formic acid]
≤ 97.7 | COc1ncc(F)c2c1CC(CNCCC1CN(c3ccc4c(n3)NC(=O)CO4)C(=O)O1)C2 (centres unmarked) [Example 70, 6-[5-[2-[(4-fluoro-1-methoxy-6,7-dihydro-5H-cyclopenta[c]pyridin-6-yl)methylamino]ethyl]-2-oxo-oxazolidin-3-yl]-4H-pyrido[3,2-b][1,4]oxazin-3-one]
< 97.7 | N#CCOc1cc(F)c2c(c1)CC(CNCCC1CN(c3ccc4c(n3)NC(=O)CO4)C(=O)O1)C2 (centres unmarked) [Example 73, 2-[[7-fluoro-2-[[2-[2-oxo-3-(3-oxo-4H-pyrido[3,2-b][1,4]oxazin-6-yl)-1,3-oxazolidin-5-yl]ethylamino]methyl]-2,3-dihydro-1H-inden-5-yl]oxy]acetonitrile; formic acid]
118 | CNC(=O)COc1cc(F)c2c(c1)CC(CNCCC1CN(c3ccc4c(n3)NC(=O)CS4)C(=O)O1)C2 (centres unmarked) [Example 74, 2-[[7-fluoro-2-[[2-[2-oxo-3-(3-oxo-4H-pyrido[3,2-b][1,4]thiazin-6-yl)-1,3-oxazolidin-5-yl]ethylamino]methyl]-2,3-dihydro-1H-inden-5-yl]oxy]-N-methylacetamide: formic acid]
393 | CN(C)C(=O)COc1cc(F)c2c(c1)CC(CNCCC1CN(c3ccc4c(n3)NC(=O)CO4)C(=O)O1)C2 (centres unmarked) [Example 77, 2-[[7-fluoro-2-[[2-[2-oxo-3-(3-oxo-4H-pyrido[3,2-b][1,4]oxazin-6-yl)-1,3-oxazolidin-5-yl]ethylamino]methyl]-2,3-dihydro-1H-inden-5-yl]oxy]-N,N-dimethylacetamide]
